According to BindingDB's records for patent WO2025049746 (Eikon Therapeutics, 2025):

Assays:
[1] = target: T1, Bifunctional 3'-5' exonuclease/ATP-dependent helicase WRN [480-1251] (UniProt Q14191); assay: Biochemical Activity Assays
T1 construct: 480-1251

[2] = target: Bifunctional 3'-5' exonuclease/ATP-dependent helicase WRN (Homo sapiens, UniProt Q14191); assay: ADP-Glo Kinase Assay
Protocol: ATPase activity was measured using the ADP-Glo Kinase Assay following the manufacturers recommended protocol.

Sequence of Bifunctional 3'-5' exonuclease/ATP-dependent helicase WRN (Q14191 whole entry): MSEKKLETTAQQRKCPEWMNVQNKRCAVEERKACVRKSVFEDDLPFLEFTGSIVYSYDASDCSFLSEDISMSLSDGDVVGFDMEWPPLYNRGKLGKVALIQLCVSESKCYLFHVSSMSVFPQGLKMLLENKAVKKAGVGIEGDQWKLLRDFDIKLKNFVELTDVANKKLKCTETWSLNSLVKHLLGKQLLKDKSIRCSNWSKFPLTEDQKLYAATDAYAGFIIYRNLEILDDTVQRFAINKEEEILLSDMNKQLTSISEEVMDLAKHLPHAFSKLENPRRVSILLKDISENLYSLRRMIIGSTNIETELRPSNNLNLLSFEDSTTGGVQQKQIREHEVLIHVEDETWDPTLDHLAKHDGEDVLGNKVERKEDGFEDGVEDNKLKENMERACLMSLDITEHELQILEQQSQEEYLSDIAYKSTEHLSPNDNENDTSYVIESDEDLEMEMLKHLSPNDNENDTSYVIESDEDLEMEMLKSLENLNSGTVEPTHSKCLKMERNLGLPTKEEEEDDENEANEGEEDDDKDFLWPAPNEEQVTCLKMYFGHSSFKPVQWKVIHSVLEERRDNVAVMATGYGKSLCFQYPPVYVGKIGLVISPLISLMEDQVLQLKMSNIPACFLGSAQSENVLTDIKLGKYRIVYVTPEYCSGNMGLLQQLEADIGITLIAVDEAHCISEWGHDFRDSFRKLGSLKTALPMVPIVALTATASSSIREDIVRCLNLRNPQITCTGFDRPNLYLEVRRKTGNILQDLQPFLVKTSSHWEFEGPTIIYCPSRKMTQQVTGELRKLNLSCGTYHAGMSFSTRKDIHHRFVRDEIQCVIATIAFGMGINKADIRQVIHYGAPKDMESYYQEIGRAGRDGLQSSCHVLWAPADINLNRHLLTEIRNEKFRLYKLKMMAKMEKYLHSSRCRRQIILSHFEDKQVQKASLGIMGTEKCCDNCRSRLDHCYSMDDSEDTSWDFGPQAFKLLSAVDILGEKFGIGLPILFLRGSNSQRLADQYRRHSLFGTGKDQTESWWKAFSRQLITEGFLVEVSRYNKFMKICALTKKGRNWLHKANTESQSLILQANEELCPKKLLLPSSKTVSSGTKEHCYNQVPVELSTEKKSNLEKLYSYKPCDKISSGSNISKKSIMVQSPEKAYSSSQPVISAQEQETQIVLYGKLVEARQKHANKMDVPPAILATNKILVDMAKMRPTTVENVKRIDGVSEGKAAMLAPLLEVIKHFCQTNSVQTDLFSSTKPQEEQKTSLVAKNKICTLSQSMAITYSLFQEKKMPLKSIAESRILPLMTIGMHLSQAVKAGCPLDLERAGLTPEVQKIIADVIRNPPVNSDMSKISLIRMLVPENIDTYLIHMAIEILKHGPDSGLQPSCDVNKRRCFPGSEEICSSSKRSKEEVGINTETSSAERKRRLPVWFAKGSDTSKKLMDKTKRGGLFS
T1 sequence (Q14191 480-1251): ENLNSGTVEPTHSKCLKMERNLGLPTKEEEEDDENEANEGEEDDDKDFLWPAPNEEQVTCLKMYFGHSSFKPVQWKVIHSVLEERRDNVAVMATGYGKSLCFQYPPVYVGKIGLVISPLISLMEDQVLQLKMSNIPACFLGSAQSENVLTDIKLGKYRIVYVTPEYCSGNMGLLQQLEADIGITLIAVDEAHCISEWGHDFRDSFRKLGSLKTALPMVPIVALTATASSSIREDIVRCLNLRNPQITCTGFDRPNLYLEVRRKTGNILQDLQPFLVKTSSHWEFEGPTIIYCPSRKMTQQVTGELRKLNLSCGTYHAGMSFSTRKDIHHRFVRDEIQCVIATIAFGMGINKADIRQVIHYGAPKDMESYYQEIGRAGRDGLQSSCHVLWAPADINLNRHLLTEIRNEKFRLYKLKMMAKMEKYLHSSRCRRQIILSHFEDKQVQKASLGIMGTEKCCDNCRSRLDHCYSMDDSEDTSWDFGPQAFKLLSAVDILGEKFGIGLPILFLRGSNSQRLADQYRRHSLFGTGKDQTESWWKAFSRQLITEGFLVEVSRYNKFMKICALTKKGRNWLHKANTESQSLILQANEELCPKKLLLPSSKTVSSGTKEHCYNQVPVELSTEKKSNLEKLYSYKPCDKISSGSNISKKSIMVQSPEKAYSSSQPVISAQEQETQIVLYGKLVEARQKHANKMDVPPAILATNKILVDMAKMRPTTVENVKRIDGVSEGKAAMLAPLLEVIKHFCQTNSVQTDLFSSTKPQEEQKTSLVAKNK

Row | Compound | IC50 [1] | IC50 [2]
1 | CCc1c(N2CCN(C(=O)c3ncnc(C)c3O)CC2)c(=O)n2nc(-c3ccc4c(c3)COC4)nc2n1CC(=O)Nc1cc(C2CC2)c(C(F)(F)F)cc1Cl [WO2025049746, Example 418] | 57 nM | 66 nM
2 | CCc1c(N2CCN(C(=O)c3ncnc(C)c3O)CC2)c(=O)n2nc(N3CC4(COC4)C3)nc2n1CC(=O)Nc1ccc(C(F)(F)F)cc1Cl [WO2025049746, Example 26] | 62.1 nM | 76.8 nM
3 | CCc1c(N2CCN(C(=O)c3ncnc(C)c3O)CC2)c(=O)n2nc(-c3ccn4ncnc4c3)nc2n1CC(=O)Nc1ccc(C(F)(F)F)cc1Cl [WO2025049746, Example 220] | 96 nM | 111 nM
4 | CCc1c(N2CCN(C(=O)c3ncnc(C)c3O)CC2)c(=O)n2nc(-c3cn4c(n3)COCC4)nc2n1CC(=O)Nc1ccc(C(F)(F)F)cc1Cl [WO2025049746, Example 153] | 165 nM | 168 nM
5 | CCc1c(N2CCN(C(=O)c3ccccc3NC(=O)c3ccn[nH]3)CC2)c(=O)n2nc(C3=CCOCC3)nc2n1CC(=O)Nc1ccc(C(F)(F)F)cc1Cl [WO2025049746, Example 40] | 62.2 nM | 125 nM
6 | CCc1c(N2CCN(C(=O)c3ncnc(C)c3O)CC2)c(=O)n2nc(C3=CCOCC3)nc2n1CC(=O)Nc1ccc(C(F)(F)F)cn1 [WO2025049746, Example 363] | 81 nM | 155 nM
7 | CCc1c(N2CCN(C(=O)c3ncnc(C)c3O)CC2)c(=O)n2nc(-c3ccc4c(c3)COC4)nc2n1CC(=O)Nc1c(Cl)cc(C(F)(F)F)c2c1OCC2 [WO2025049746, Example 442] | 67 nM | 54 nM
8 | CCc1c(N2CCN(C(=O)c3ncnc(C)c3O)CC2)c(=O)n2nc(C3=CCOCC3)nc2n1CC(=O)NC1CC2(C1)CC2(F)F (configuration not stated) [WO2025049746, Example 366] | 2540 nM | 4200 nM
9 | CCc1c(N2CCN(C(=O)c3ncnc(C)c3O)CC2)c(=O)n2nc(C3=CCOCC3)nc2n1CC(=O)NC12CCC(C(F)(F)F)(CC1)C2 [WO2025049746, Example 362] | 615 nM | 1650 nM
10 | CCc1c(N2CCCC3C2CCN3C(=O)c2ncnc(C)c2O)c(=O)n2nc(C3=CCOCC3)nc2n1CC(=O)Nc1ccc(C(F)(F)F)cc1Cl (configuration not stated) [WO2025049746, Example 345] | 29700 nM | 7450 nM
11 | CCc1c(N2CCN(C(=O)c3ncnc(C)c3O)[C@H]3CC[C@@H]32)c(=O)n2nc(-c3ccc4c(c3)COC4(C)C)nc2n1CC(=O)Nc1ccc(C(F)(F)F)cc1Cl [WO2025049746, Example 458] | 93 nM | 90 nM
12 | CCc1c(N2CCN(C(=O)c3ncnc(C)c3O)CC2)c(=O)n2nc(-c3ccc4c(c3)CO[C@@H]4C(F)(F)F)nc2n1CC(=O)Nc1ccc(C(F)(F)F)cc1Cl [WO2025049746, Example 276] | 85 nM | 72 nM
13 | CCc1c(N2CCN(C(=O)c3ccccc3NS(=O)(=O)C3CC3)CC2)c(=O)n2nc(-c3ccc4c(c3)CCOC4)nc2n1CC(=O)Nc1ccc(C(F)(F)F)cc1Cl [WO2025049746, Example 91] | 84.6 nM | 106 nM
14 | CCc1c(N2CCN(C(=O)c3nc4c(cc3O)OCC4)CC2)c(=O)n2nc(-c3ccc4c(c3)COC4)nc2n1CC(=O)Nc1ccc(C(F)(F)F)cc1Cl [WO2025049746, Example 435] | 50 nM | 61 nM

Other lines, results leading:

Row | IC50 [1] | IC50 [2] | Compound
15 | 45 nM | 44 nM | CCc1c(N2CCN(C(=O)c3ncnc(C)c3O)CC2)c(=O)n2nc(-c3ccc4nn(C5COC5)cc4c3)nc2n1CC(=O)Nc1ccc(C(F)(F)F)cc1Cl [WO2025049746, Example 332]
16 | 40 nM | 40 nM | CCc1c(N2CCN(C(=O)c3ncnc(C)c3O)CC2)c(=O)n2nc(-c3ccc4conc4c3)nc2n1CC(=O)Nc1ccc(C(F)(F)F)cc1Cl [WO2025049746, Example 265]
17 | 50 nM | 45 nM | CCc1c(N2CC[C@@H](C)N(C(=O)c3ncnc(C)c3O)CC2)c(=O)n2nc(-c3ccc4c(c3)COC4(C)C)nc2n1CC(=O)Nc1ccc(C(F)(F)F)cc1Cl [WO2025049746, Example 461]
18 | 43.9 nM | 57.1 nM | CCc1c(N2CCN(C(=O)c3cccc4[nH]c(=O)[nH]c34)CC2)c(=O)n2nc(C3=CCOCC3)nc2n1CC(=O)Nc1ccc(C(F)(F)F)cc1Cl [WO2025049746, Example 51]
19 | 29 nM | 28 nM | CCc1c(N2CCN(C(=O)c3ncnc(C)c3O)CC2)c(=O)n2nc(-c3ccc4nn(CC(F)F)cc4c3)nc2n1CC(=O)Nc1ccc(C(F)(F)F)cc1Cl [WO2025049746, Example 292]
20 | 31.9 nM | 29.1 nM | Cc1ncnc(C(=O)N2CCN(c3c4n(c5nc(-c6ccc7c(c6)COC7(C)C)nn5c3=O)[C@@H](C(=O)Nc3ccc(C(F)(F)F)cc3Cl)C[C@H]4C)[C@H]3CC[C@@H]32)c1O [WO2025049746, Example 465]
21 | 22.8 nM | 26.9 nM | CCc1c(N2CCN(C(=O)c3ncnc(C)c3O)CC2)c(=O)n2nc(N(C)C)nc2n1CC(=O)Nc1ccc(C(F)(F)F)c2c1CC2 [WO2025049746, Example 104]
22 | 21 nM | 25 nM | CCc1c(N2CCN(C(=O)c3ncnc(C)c3O)CC2)c(=O)n2nc(-c3cc4c(cc3F)COC4)nc2n1CC(=O)Nc1ccc(C(F)(F)F)cc1Cl [WO2025049746, Example 201]
23 | 29 nM | 32 nM | CCc1c(N2CCN(C(=O)c3ncnc(C)c3O)CC2)c(=O)n2nc(-c3cnc4ccn(C)c4c3)nc2n1CC(=O)Nc1ccc(C(F)(F)F)cc1Cl [WO2025049746, Example 304]
24 | 30 nM | 52 nM | CCc1c(N2CCN(C(=O)c3ncnc(C)c3O)CC2)c(=O)n2nc(-c3ccc4c(c3)n(C)c(=O)n4C)nc2n1CC(=O)Nc1ccc(C(F)(F)F)cc1Cl [WO2025049746, Example 175]
25 | 18 nM | 19 nM | CCc1c(N2CCN(C(=O)c3ncnc(C)c3O)CC2)c(=O)n2nc(-c3cc4ccnn4cc3F)nc2n1CC(=O)Nc1ccc(C(F)(F)F)cc1Cl [WO2025049746, Example 242]
26 | 25 nM | 25 nM | CCc1c(N2CCN(C(=O)c3ncnc(C)c3O)CC2)c(=O)n2nc(-c3ccc4ncn(C)c4c3)nc2n1CC(=O)Nc1ccc(C(F)(F)F)cc1Cl [WO2025049746, Example 236]
27 | 38 nM | 45 nM | CCc1c(N2CCN(C(=O)c3ncnc(C)c3O)CC2)c(=O)n2nc(-c3ccc4c(c3)CCO4)nc2n1CC(=O)Nc1c(Cl)cc(C(F)(F)F)c2scnc12 [WO2025049746, Example 428]
28 | 29 nM | 34 nM | CCc1c(N2CCN(C(=O)c3ncnc(C)c3O)CC2)c(=O)n2nc(-c3ccc4c(c3)[C@H](C)OC4)nc2n1CC(=O)Nc1ccc(C(F)(F)F)cc1Cl [WO2025049746, Example 189]
29 | 45.7 nM | 58.3 nM | CCc1c(N2CCN(C(=O)c3ccccc3NS(=O)(=O)C3CC3)CC2)c(=O)n2nc(N3C[C@H]4COC[C@H]4C3)nc2n1CC(=O)Nc1ccc(C(F)(F)F)c2c1CC2 [WO2025049746, Example 112]
30 | 36 nM | 31 nM | CCc1c(N2CCN(C(=O)c3ncnc(C)c3O)CC2)c(=O)n2nc(-c3ccc4c(c3)COC43COC3)nc2n1CC(=O)Nc1ccc(C(F)(F)F)cc1Cl [WO2025049746, Example 278]
31 | 48.8 nM | 63.9 nM | CCc1c(N2CCN(C(=O)c3ncnc(C)c3O)CC2)c(=O)n2nc(N3CCCOCC3)nc2n1CC(=O)Nc1ccc(C(F)(F)F)cc1Cl [WO2025049746, Example 25]
